{
  "source": "patent US10640457B2",
  "about": "“Histone acetyltransferase activators and uses thereof” (The Trustees of Columbia University in the City of New York, priority 2009, dated 2020)",
  "key": {"[1]": {"assay": "Kinetics of YF2 in tail blood", "assay_type": "in vivo, mice", "settings": "20 mg/kg i.p.", "procedure": "To this purpose, we administered the compound (20 mg/kg. i.p.) and then sampled blood from tails at different time points."}, "Aβ42-infused mice": {"tested_on": "Aβ42-infused mice", "assay": "Two day radial arm water maze in Aβ-infused mice (YF2)", "assay_type": "in vivo", "description": "The task is a hybrid of the Morris Water Maze (MWM) and the radial arm land maze. This task is altered in Aβ-infused mice. The motivation for the animals is the immersion in water. The mouse needed to swim in 6 alleys (arms) radiating from a central area until it found a hidden (submerged) platform at the end of one of the arms, based on visual cues placed in the room. […] The first day of the protocol was a training day. Mice were trained to identify the platform location by alternating between a visible and a hidden platform in a goal arm. The final 3 trials on day 1 and all 15 trials on day 2 used a hidden escape platform to force mice to use spatial cues to identify the location of the goal arm.\nTo avoid learning limitations imposed by exhausting practice and to avoid fatigue that may result from consecutive trials, spaced practice training were established by running the mice in cohorts of 4 and alternating different cohorts through the 15 training trials over 3 hours testing periods each day. […] The number of incorrect arm entries (entries in arms with no platform) was counted. […] Failure to select an arm after 15 sec were counted as an error and the mouse was returned to the start arm. […]\nNext, mice from the first cohort completed trials 7-12 again using the alternating visible-hidden platform location. […] For data analysis, averages for each mouse were calculated using blocks of 3 trials. […]"}, "HDAC6": {"biological_target": "T1, HDAC6 (Homo sapiens, UniProt Q9UBN7)", "T1 sequence (Q9UBN7 1-1215)": "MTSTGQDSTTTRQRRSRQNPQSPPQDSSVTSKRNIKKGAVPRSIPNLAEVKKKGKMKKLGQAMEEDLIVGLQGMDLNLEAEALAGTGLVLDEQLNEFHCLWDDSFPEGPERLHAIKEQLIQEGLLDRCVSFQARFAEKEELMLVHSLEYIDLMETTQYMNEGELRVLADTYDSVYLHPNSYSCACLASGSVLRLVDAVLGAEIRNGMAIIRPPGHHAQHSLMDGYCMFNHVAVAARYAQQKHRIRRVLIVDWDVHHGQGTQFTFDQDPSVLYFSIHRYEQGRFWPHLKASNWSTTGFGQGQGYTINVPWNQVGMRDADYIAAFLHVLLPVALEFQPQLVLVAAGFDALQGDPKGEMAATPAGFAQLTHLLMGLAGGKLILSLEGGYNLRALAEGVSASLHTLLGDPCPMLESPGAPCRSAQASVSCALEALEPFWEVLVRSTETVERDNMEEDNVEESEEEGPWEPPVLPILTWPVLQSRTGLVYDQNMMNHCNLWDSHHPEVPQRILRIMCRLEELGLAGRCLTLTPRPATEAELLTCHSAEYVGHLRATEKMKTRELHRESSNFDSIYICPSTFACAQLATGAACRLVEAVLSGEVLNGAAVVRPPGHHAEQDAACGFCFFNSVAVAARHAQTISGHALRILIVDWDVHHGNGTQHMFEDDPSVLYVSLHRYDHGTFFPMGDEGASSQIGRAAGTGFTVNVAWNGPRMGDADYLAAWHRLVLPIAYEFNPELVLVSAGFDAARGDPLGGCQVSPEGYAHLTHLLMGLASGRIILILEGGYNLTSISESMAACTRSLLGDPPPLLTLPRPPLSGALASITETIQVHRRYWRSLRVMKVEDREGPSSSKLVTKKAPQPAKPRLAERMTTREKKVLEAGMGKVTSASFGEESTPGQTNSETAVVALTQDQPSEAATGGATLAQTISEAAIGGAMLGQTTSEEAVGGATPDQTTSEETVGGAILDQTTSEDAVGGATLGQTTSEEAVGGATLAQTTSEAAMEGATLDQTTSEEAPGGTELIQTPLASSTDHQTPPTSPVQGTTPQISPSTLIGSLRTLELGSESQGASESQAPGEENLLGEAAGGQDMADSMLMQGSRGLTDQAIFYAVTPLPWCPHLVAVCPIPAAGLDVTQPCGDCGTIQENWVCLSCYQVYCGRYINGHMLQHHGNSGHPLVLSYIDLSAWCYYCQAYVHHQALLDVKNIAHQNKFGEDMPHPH", "assay": "HDAC6 fluorogenic activity assay", "settings": "for % Activity: Repeat1/Repeat2, listed as OA2"}},
  "note": "Where “and” joins values, the source holds several entries; their conditions need not be identical. Equal values may be shown once. Entries after “also recorded” stand apart in the source; their conditions may differ.",
  "data": [
    {"smiles": "CCOc1cccc(OCCN(C)C)c1C(=O)Nc1ccc(Cl)c(C(F)(F)F)c1", "note": "[YF2]", "values": [
      {"measurement": "time of peak in blood post-injection", "setting": "[1]", "value": "around 30 minutes"},
      {"measurement": "RAWM performance, compound by itself", "setting": "Aβ42-infused mice; 5 mg/kg i.p., no Aβ", "value": "did not affect"},
      {"measurement": "Aβ-induced reference memory impairment (RAWM errors)", "setting": "Aβ42-infused mice; Aβ42-infused mice, i.p. 5 mg/kg 30 min prior to 1st and 7th trial, 5 mg/kg", "value": "ameliorated; also recorded: rescued"},
      {"measurement": "IC50", "setting": "HDAC6", "value": "> 200", "unit": "µM"},
      {"measurement": "% Activity", "setting": "HDAC6; OA2 Log[nM] 0.5", "value": "104.75% and 106.28%"},
      {"measurement": "% Activity", "setting": "HDAC6; OA2 Log[nM] 1.0", "value": "106.10% and 100.51%"},
      {"measurement": "% Activity", "setting": "HDAC6; OA2 Log[nM] 1.5", "value": "96.75% and 108.50%"},
      {"measurement": "% Activity", "setting": "HDAC6; OA2 Log[nM] 2.0", "value": "100.33% and 105.31%"},
      {"measurement": "% Activity", "setting": "HDAC6; OA2 Log[nM] 2.5", "value": "99.30% and 99.28%"},
      {"measurement": "% Activity", "setting": "HDAC6; OA2 Log[nM] 3.0", "value": "100.06% and 94.62%"},
      {"measurement": "% Activity", "setting": "HDAC6; OA2 Log[nM] 3.5", "value": "96.79% and 97.61%"},
      {"measurement": "% Activity", "setting": "HDAC6; OA2 Log[nM] 4.0", "value": "94.62% and 100.10%"},
      {"measurement": "% Activity", "setting": "HDAC6; OA2 Log[nM] 4.5", "value": "79.13% and 87.65%"},
      {"measurement": "% Activity", "setting": "HDAC6; OA2 Log[nM] 5.3", "value": "70.40% and 102.77%"}
    ]}
  ]
}
